According to PMC12779026, “α-Glycosidase activity of novel coumarin–triazole–coumarin dyads” (Turkish Journal of Chemistry, 2025):
“Also recorded” adds a separate entry of the source.

Legend:
[1] = biological target: α-glycosidase; assay: α-Glycosidase inhibitory assay (spectrophotometric, 4-pNPG substrate, 405 nm); assay type: biochemical; conditions: 0.5 U/mL α-glycosidase, 5 mM 4-pNPG, phosphate buffer pH 6.9, compounds 5–250 μM
Description: The α-glycosidase inhibitory effects of the compounds were determined as described in the previous study. Acarbose (Sigma-Aldrich, A8980) was used as a reference compound in this study. The compounds were first dissolved in 25 mM DMSO and then diluted to 1 mM with phosphate buffer (0.1 M, pH: 6.9). In brief, the compounds and acarbose in phosphate buffer (0.1 M, pH: 6.9) were added to a 96-well plate at 5–250 μM. Then, 100 μL, 0.5 U/mL α-glycosidase (Sigma-Aldrich, G5003) was added to the wells. After 10 min, 50 μL of 5 mM p-nitrophenyl-α-D-glucopyranoside (4-pNPG) (Sigma-Aldrich, 487506) was added as a substrate to each well. After incubation for 10 min, spectrophotometric measurement was performed at 405 nm. The percentage inhibition rate of the compounds was calculated using the following formula: […]
In this formula, A0 and A1 represent the absorbance of the mixture in the absence and presence of the compound, respectively. In addition, IC50 values, which indicate the […] required to inhibit half of the enzyme activity, were calculated.

[2] = biological target: α-glycosidase; assay: Kinetic analysis of α-glycosidase inhibition (Lineweaver–Burk and Dixon plots); assay type: biochemical
Description: To determine this, the final concentration of α-glycosidase was fixed at 0.5 U/mL. Then, different concentrations of 4-pNPG (2.5–20 mM) and varying concentrations of 4e (20 μM, 40 μM, and 100 μM) showing inhibitory potential were added to the wells. Following incubation, the absorbance values at 405 nm in the presence and absence of the compound were measured in the microplate reader. Lineweaver–Burk and Dixon plots were used to determine the inhibitor type and the inhibitory constant (Ki) of 4e. In the Lineweaver–Burk plot, the y-axis represents 1/V, the inverse of the reaction rate, while the x-axis represents 1/[S], the inverse of the substrate concentration. According to this plot, the points intersecting the y-axis give the value 1/Vmax. From here, the Vmax value, which represents the maximum reaction rate, can be determined. Km, a value indicating the enzyme’s interest in the substrate, can be determined from the points where the line intersects the x-axis. The type of inhibition is then determined by analyzing the changes in Vmax and Km. The Dixon graph is used to calculate the Ki value, which indicates the inhibitory potential of 4e.

Row | SMILES | IC50 [1] | Ki ([2]; Dixon plot) | Type (of inhibition) ([2]; Lineweaver–Burk plot, 4-pNPG 2.5–20 mM, 4e 20, 40, 100 μM)
1 | COc1ccc(-c2cc3ccc(OCc4cn(Cc5cc(=O)oc6c(C)c(O)ccc56)nn4)cc3oc2=O)cc1 [4c, 7-Hydroxy-4-((4-(((3-(4-methoxyphenyl)-2-oxo-2H-chromen-7-yl)oxy)methyl)-1H-1,2,3-triazol-1-yl)methyl)-8-methyl-2H-chromen-2-one] | 109 ± 2.4 µM |  | 
2 | Cc1c(O)ccc2c(Cn3cc(COc4ccc5cc(-c6ccc([N+](=O)[O-])cc6)c(=O)oc5c4)nn3)cc(=O)oc12 [4e, 7-Hydroxy-8-methyl-4-((4-(((3-(4-nitrophenyl)-2-oxo-2H-chromen-7-yl)oxy)methyl)-1H-1,2,3-triazol-1-yl)methyl)-2H-chromen-2-one] | 39 ± 0.77 µM | 19.95 ± 0.15 µM | mixed type; also recorded: mixed inhibitor
3 | C[C@H]1O[C@H](O[C@H]2[C@H](O)[C@@H](O)[C@@H](O[C@H]3[C@H](O)[C@@H](O)C(O)O[C@@H]3CO)O[C@@H]2CO)[C@H](O)[C@@H](O)[C@@H]1N[C@H]1C=C(CO)[C@@H](O)[C@H](O)[C@H]1O (some centres unmarked) [Acarbose, reference compound] | 64.5 ± 2.53 µM |  | 

Continued, in another order:

Row | IC50 [1] | Ki ([2]; Dixon plot) | SMILES | Type (of inhibition) ([2]; Lineweaver–Burk plot, 4-pNPG 2.5–20 mM, 4e 20, 40, 100 μM)
4 | 95 ± 3.55 µM |  | Cc1c(O)ccc2c(Cn3cc(COc4ccc5cc(-c6ccccc6)c(=O)oc5c4)nn3)cc(=O)oc12 [4a, 7-Hydroxy-8-methyl-4-((4-(((2-oxo-3-phenyl-2H-chromen-7-yl)oxy)methyl)-1H-1,2,3-triazol-1-yl)methyl)-2H-chromen-2-one] | 
5 | 123 ± 4.2 µM |  | Cc1ccc(-c2cc3ccc(OCc4cn(Cc5cc(=O)oc6c(C)c(O)ccc56)nn4)cc3oc2=O)cc1 [4b, 7-Hydroxy-8-methyl-4-((4-(((2-oxo-3-(p-tolyl)-2H-chromen-7-yl)oxy)methyl)-1H-1,2,3-triazol-1-yl)methyl)-2H-chromen-2-one] | 
6 | 93.5 ± 1.7 µM |  | Cc1c(O)ccc2c(Cn3cc(COc4ccc5cc(-c6ccc(F)cc6)c(=O)oc5c4)nn3)cc(=O)oc12 [4d, 4-((4-(((3-(4-Fluorophenyl)-2-oxo-2H-chromen-7-yl)oxy)methyl)-1H-1,2,3-triazol-1-yl)methyl)-7-hydroxy-8-methyl-2H-chromen-2-one] | 
